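Protocol summary: plate cells (96-well), add compound at 5 concentrations, incubate 48 h, interpolate endpoints linearly. The concentration for 50% growth inhibition is given as GI50. At the TGI there is no net growth.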
Experiments:
Assay in all cases: DTP human tumour cell line panel, 48 h
RXF 393 renal = tested on: RXF 393 renal
SR leukemia = tested on: SR leukemia
SF-295 CNS = tested on: SF-295 CNS
SK-MEL-5 melanoma = tested on: SK-MEL-5 melanoma
MALME-3M melanoma = tested on: MALME-3M melanoma
NCI-H23 lung = tested on: NCI-H23 lung
SK-OV-3 ovarian = tested on: SK-OV-3 ovarian
UACC-62 melanoma = tested on: UACC-62 melanoma
UO-31 renal = tested on: UO-31 renal
KM12 colon = tested on: KM12 colon
CAKI-1 renal = tested on: CAKI-1 renal
HL-60(TB) leukemia = tested on: HL-60(TB) leukemia
M14 melanoma = tested on: M14 melanoma
ACHN renal = tested on: ACHN renal
LOX IMVI melanoma = tested on: LOX IMVI melanoma
A498 renal = tested on: A498 renal
COLO 205 colon = tested on: COLO 205 colon
RPMI-8226 leukemia = tested on: RPMI-8226 leukemia
CCRF-CEM leukemia = tested on: CCRF-CEM leukemia
HOP-92 NSCLC = tested on: HOP-92 NSCLC
HS 578T breast = tested on: HS 578T breast
NCI-H226 lung = tested on: NCI-H226 lung
OVCAR-4 ovarian = tested on: OVCAR-4 ovarian
SNB-19 CNS = tested on: SNB-19 CNS
NCI/ADR-RES ovarian = tested on: NCI/ADR-RES ovarian
SW-620 colon = tested on: SW-620 colon
BT-549 breast = tested on: BT-549 breast
EKVX NSCLC = tested on: EKVX NSCLC
TK-10 renal = tested on: TK-10 renal
HCT-15 colon = tested on: HCT-15 colon
SK-MEL-28 melanoma = tested on: SK-MEL-28 melanoma
MDA-MB-435 = tested on: MDA-MB-435
OVCAR-8 ovarian = tested on: OVCAR-8 ovarian
IGROV1 ovarian = tested on: IGROV1 ovarian
T-47D breast = tested on: T-47D breast
A549 NSCLC = tested on: A549 NSCLC
U251 CNS = tested on: U251 CNS
DU-145 prostate = tested on: DU-145 prostate
OVCAR-5 ovarian = tested on: OVCAR-5 ovarian
SNB-75 CNS = tested on: SNB-75 CNS
PC-3 prostate = tested on: PC-3 prostate
SN12C renal = tested on: SN12C renal
SF-539 CNS = tested on: SF-539 CNS
HOP-62 NSCLC = tested on: HOP-62 NSCLC
OVCAR-3 ovarian = tested on: OVCAR-3 ovarian
HT29 colon = tested on: HT29 colon
MCF7 breast = tested on: MCF7 breast
SK-MEL-2 melanoma = tested on: SK-MEL-2 melanoma
HCT-116 colon = tested on: HCT-116 colon
SF-268 CNS = tested on: SF-268 CNS
NCI-H522 lung = tested on: NCI-H522 lung
786-0 renal = tested on: 786-0 renal
HCC-2998 colon = tested on: HCC-2998 colon
NCI-H460 lung = tested on: NCI-H460 lung
MDA-MB-231 breast = tested on: MDA-MB-231 breast
MOLT-4 leukemia = tested on: MOLT-4 leukemia
UACC-257 melanoma = tested on: UACC-257 melanoma

For `CCC(=C/[C@H](C)C/C=C/C(C)=C/[C@@H](C)C(=O)[C@@H](C)[C@H](O)[C@@H](C)CC)/C=C/[C@@H]1OC(=O)C=C[C@@H]1C`, the GI50 (RXF 393 renal) was < 5 nM, the TGI (RXF 393 renal) was 71.1 nM and the GI50 (SR leukemia) was < 5 nM. For the same compound, the TGI (SR leukemia) was 219 nM, the GI50 (SF-295 CNS) was < 5 nM and the TGI (SF-295 CNS) was 7490 nM. For the same compound, the GI50 (SK-MEL-5 melanoma) was < 5 nM, the TGI (SK-MEL-5 melanoma) was < 5 nM and the GI50 (MALME-3M melanoma) was < 5 nM. The TGI (MALME-3M melanoma) was 253 nM, the GI50 (NCI-H23 lung) was < 5 nM and the TGI (NCI-H23 lung) was 4290 nM. For the same compound, the GI50 (SK-OV-3 ovarian) was < 5 nM, the TGI (SK-OV-3 ovarian) was 6500 nM and the GI50 (UACC-62 melanoma) was < 5 nM. The TGI (UACC-62 melanoma) was 243 nM, the GI50 (UO-31 renal) was < 5 nM and the TGI (UO-31 renal) was 214 nM. For the same compound, the GI50 (KM12 colon) was < 5 nM, the TGI (KM12 colon) was 5170 nM and the GI50 (CAKI-1 renal) was < 5 nM. For the same compound, the TGI (CAKI-1 renal) was 8530 nM, the GI50 (HL-60(TB) leukemia) was < 5 nM and the TGI (HL-60(TB) leukemia) was < 5 nM. For the same compound, the GI50 (M14 melanoma) was < 5 nM, the TGI (M14 melanoma) was < 5 nM and the GI50 (ACHN renal) was < 5 nM. The TGI (ACHN renal) was 6290 nM, the GI50 (LOX IMVI melanoma) was < 5 nM and the TGI (LOX IMVI melanoma) was 584 nM. For the same compound, the GI50 (A498 renal) was < 5 nM, the TGI (A498 renal) was < 5 nM and the GI50 (COLO 205 colon) was < 5 nM. The TGI (COLO 205 colon) was < 5 nM, the GI50 (RPMI-8226 leukemia) was < 5 nM and the TGI (RPMI-8226 leukemia) was < 5 nM. The GI50 (CCRF-CEM leukemia) was < 5 nM, the TGI (CCRF-CEM leukemia) was 1800 nM and the GI50 (HOP-92 NSCLC) was < 5 nM. The TGI (HOP-92 NSCLC) was < 5 nM, the GI50 (HS 578T breast) was < 5 nM and the TGI (HS 578T breast) was 2450 nM. For the same compound, the GI50 (NCI-H226 lung) was < 5 nM, the TGI (NCI-H226 lung) was < 5 nM and the GI50 (OVCAR-4 ovarian) was < 5 nM. The TGI (OVCAR-4 ovarian) was 6660 nM, the GI50 (SNB-19 CNS) was < 5 nM and the TGI (SNB-19 CNS) was 3500 nM. For the same compound, the GI50 (NCI/ADR-RES ovarian) was < 5 nM, the TGI (NCI/ADR-RES ovarian) was 1370 nM and the GI50 (SW-620 colon) was < 5 nM. For the same compound, the TGI (SW-620 colon) was 3180 nM, the GI50 (BT-549 breast) was < 5 nM and the TGI (BT-549 breast) was < 5 nM. The GI50 (EKVX NSCLC) was < 5 nM, the TGI (EKVX NSCLC) was 8330 nM and the GI50 (TK-10 renal) was < 5 nM. The TGI (TK-10 renal) was 10700 nM, the GI50 (HCT-15 colon) was < 5 nM and the TGI (HCT-15 colon) was 409 nM. For the same compound, the GI50 (SK-MEL-28 melanoma) was < 5 nM, the TGI (SK-MEL-28 melanoma) was 75.7 nM and the GI50 (MDA-MB-435) was < 5 nM. The TGI (MDA-MB-435) was < 5 nM, the GI50 (OVCAR-8 ovarian) was < 5 nM and the TGI (OVCAR-8 ovarian) was 6160 nM. The GI50 (IGROV1 ovarian) was 92.6 nM, the TGI (IGROV1 ovarian) was 7880 nM and the GI50 (T-47D breast) was < 5 nM. For the same compound, the TGI (T-47D breast) was 6180 nM, the GI50 (A549 NSCLC) was < 5 nM and the TGI (A549 NSCLC) was 7020 nM. For the same compound, the GI50 (U251 CNS) was < 5 nM, the TGI (U251 CNS) was 2060 nM and the GI50 (DU-145 prostate) was < 5 nM. The TGI (DU-145 prostate) was 5710 nM, the GI50 (OVCAR-5 ovarian) was < 5 nM and the TGI (OVCAR-5 ovarian) was 4740 nM. The GI50 (SNB-75 CNS) was < 5 nM, the TGI (SNB-75 CNS) was 77.3 nM and the GI50 (PC-3 prostate) was < 5 nM. The TGI (PC-3 prostate) was 5940 nM, the GI50 (SN12C renal) was < 5 nM and the TGI (SN12C renal) was 4320 nM. For the same compound, the GI50 (SF-539 CNS) was < 5 nM, the TGI (SF-539 CNS) was < 5 nM and the GI50 (HOP-62 NSCLC) was < 5 nM. For the same compound, the TGI (HOP-62 NSCLC) was 874 nM, the GI50 (OVCAR-3 ovarian) was < 5 nM and the TGI (OVCAR-3 ovarian) was 6300 nM. For the same compound, the GI50 (HT29 colon) was < 5 nM, the TGI (HT29 colon) was 5310 nM and the GI50 (MCF7 breast) was < 5 nM. For the same compound, the TGI (MCF7 breast) was 158 nM, the GI50 (SK-MEL-2 melanoma) was < 5 nM and the TGI (SK-MEL-2 melanoma) was 3030 nM. For the same compound, the GI50 (HCT-116 colon) was < 5 nM, the TGI (HCT-116 colon) was < 5 nM and the GI50 (SF-268 CNS) was < 5 nM. For the same compound, the TGI (SF-268 CNS) was 2190 nM, the GI50 (NCI-H522 lung) was < 5 nM and the TGI (NCI-H522 lung) was 81.7 nM. For the same compound, the GI50 (786-0 renal) was < 5 nM, the TGI (786-0 renal) was < 5 nM and the GI50 (HCC-2998 colon) was < 5 nM. The TGI (HCC-2998 colon) was < 5 nM, the GI50 (NCI-H460 lung) was < 5 nM and the TGI (NCI-H460 lung) was 53.3 nM. The GI50 (MDA-MB-231 breast) was < 5 nM, the TGI (MDA-MB-231 breast) was 4640 nM and the GI50 (MOLT-4 leukemia) was < 5 nM. The TGI (MOLT-4 leukemia) was < 5 nM, the GI50 (UACC-257 melanoma) was < 5 nM and the TGI (UACC-257 melanoma) was 8900 nM.

From PubChem BioAssay (NCI)
